Target: T1, hemoglobin (20% hct blood) (Homo sapiens, UniProt P68871+P69905)
T1 construct: Normal whole blood was collected from adult healthy donors; from tissue; host or cells: normal human whole blood (red blood cells), adult healthy donors
Test: Dose-dependent whole blood OEC studies
Type: cell-based
Details: 37° C., 1 hr; for delta p50 0.2 mM: 0.2 mM compound; for delta p50 0.5 mM: 0.5 mM compound
Procedure: Materials: Normal whole blood was collected from adult healthy donors at the Virginia Commonwealth University after informed consent. The use of these human samples is in accordance with regulations of the IRB for Protection of Human Subjects. Compounds (50 mM-100 mM concentration in DMSO) were stored at 15° C. or room temperature until use.
To 2 ml 20% hct blood, 0.2 or 0.5 or 1 mM compound was added and kept shaking at 37° C. for 1 hr. OEC analysis was performed as described above to determine partial pressure of oxygen (pO2) and Hb oxygen saturation values (sO2). A control without compound but containing equivalent amount of DMSO was performed (1%). GBT440 was used as a positive control. Table 2 below lists the delta p50% values.

T1 sequence (P69905 2-142 limits assumed): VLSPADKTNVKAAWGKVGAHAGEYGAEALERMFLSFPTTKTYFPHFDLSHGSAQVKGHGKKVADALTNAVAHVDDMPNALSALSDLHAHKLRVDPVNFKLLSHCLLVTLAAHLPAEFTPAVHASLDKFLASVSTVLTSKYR
T1 sequence (P68871 2-147 limits assumed): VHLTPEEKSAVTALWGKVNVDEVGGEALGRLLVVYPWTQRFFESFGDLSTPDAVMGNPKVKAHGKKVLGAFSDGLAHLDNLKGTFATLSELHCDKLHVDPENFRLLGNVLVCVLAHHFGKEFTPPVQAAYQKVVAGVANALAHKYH

`CC(C)n1nccc1-c1ncccc1COc1ccc2sncc2c1C=O` [Example 11, 5-((2-(1-isopropyl-1H-pyrazol-5-yl)pyridin-3-yl)methoxy)benzo[d]isothiazole-4-carbaldehyde] was tested, and the “delta p50 0.2 mM” value was −12.80% and the “delta p50 0.5 mM” value was −37.60%.

In the case of `CC(C)n1nccc1-c1ncccc1COc1ccc2ncsc2c1C=O` [Example 12, 6-((2-(1-isopropyl-1H-pyrazol-5-yl)pyridin-3-yl)methoxy)benzo[d]thiazole-7-carbaldehyde], the “delta p50 0.2 mM” value is reported as −26.60% and the “delta p50 0.5 mM” value is reported as −58.40%.

With `CC(C)n1nccc1-c1ncccc1COc1ccc2scnc2c1C=O` [Example 16, 5-((2-(1-isopropyl-1H-pyrazol-5-yl)pyridin-3-yl)methoxy)benzo[d]thiazole-4-carbaldehyde] the “delta p50 0.2 mM” value was −8.90% and the “delta p50 0.5 mM” value was −14.70%.

For `CC(C)n1nccc1-c1ncccc1COc1ccc2snnc2c1C=O` [Example 17, 5-((2-(1-isopropyl-1H-pyrazol-5-yl)pyridin-3-yl)methoxy)benzo[d][1,2,3]thiadiazole-4-carbaldehyde], the “delta p50 0.2 mM” value was −12% and the “delta p50 0.5 mM” value was −30%.

With `CC(C)n1nccc1-c1ncccc1COc1ccc2nnsc2c1C=O` [Example 18, 6-((2-(1-isopropyl-1H-pyrazol-5-yl)pyridin-3-yl)methoxy)benzo[d][1,2,3]thiadiazole-7-carbaldehyde] the “delta p50 0.2 mM” value was −2.80% and the “delta p50 0.5 mM” value was −8.10%.

In the case of `CC(C)n1nccc1-c1ncccc1COc1ccc2ncncc2c1C=O` [Example 19, 6-((2-(1-isopropyl-1H-pyrazol-5-yl)pyridin-3-yl)methoxy)quinazoline-5-carbaldehyde], the “delta p50 0.2 mM” value is reported as −8.20% and the “delta p50 0.5 mM” value is reported as −18.10%.

In the case of `CC(C)n1ncc(F)c1-c1ncccc1COc1ccc2ncoc2c1C=O` [Example 22, 6-((2-(4-fluoro-1-isopropyl-1H-pyrazol-5-yl)pyridin-3-yl)methoxy)benzo[d]oxazole-7-carbaldehyde], the “delta p50 0.2 mM” value is reported as −12.90% and the “delta p50 0.5 mM” value is reported as −35.50%.

With `[2H]C([2H])(Oc1cccc(O)c1C=O)c1cccnc1-c1c(F)cnn1C(C)C` [Example 25, 2-((2-(4-fluoro-1-isopropyl-1H-pyrazol-5-yl)pyridin-3-yl)methoxy-d2)-6-hydroxybenzaldehyde] the “delta p50 0.2 mM” value was −14.30% and the “delta p50 0.5 mM” value was −36.10%.

With `[2H]C([2H])(Oc1cc(F)cc(O)c1C=O)c1cccnc1-c1c(F)cnn1C(C)C` [Example 26, 4-fluoro-2-((2-(4-fluoro-1-isopropyl-1H-pyrazol-5-yl)pyridin-3-yl)methoxy-d2)-6-hydroxybenzaldehyde] the “delta p50 0.2 mM” value was −11.10% and the “delta p50 0.5 mM” value was −26.10%.

For `[2H]C([2H])(Oc1ccc2ncoc2c1C=O)c1cccnc1-c1ccnn1C(C)C` [Example 28, 6-((2-(1-isopropyl-1H-pyrazol-5-yl)pyridin-3-yl)methoxy-d2)benzo[d]oxazole-7-carbaldehyde], the “delta p50 0.2 mM” value was −11.90% and the “delta p50 0.5 mM” value was −40.70%.

In the case of `[2H]C([2H])([2H])C(n1nccc1-c1ncccc1COc1cc(F)cc(O)c1C=O)C([2H])([2H])[2H]` [Example 31, 4-fluoro-2-hydroxy-6-((2-(1-(propan-2-yl-1,1,1,3,3,3-d6)-1H-pyrazol-5-yl)pyridin-3-yl)methoxy)benzaldehyde], the “delta p50 0.2 mM” value is reported as −9.80% and the “delta p50 0.5 mM” value is reported as −36.10%.

For `[2H]C([2H])([2H])C(n1ncc(F)c1-c1ncccc1COc1cccc(O)c1C=O)C([2H])([2H])[2H]` [Example 32, 2-((2-(4-fluoro-1-(propan-2-yl-1,1,1,3,3,3-d6)-1H-pyrazol-5-yl)pyridin-3-yl)methoxy)-6-hydroxybenzaldehyde], the “delta p50 0.2 mM” value was −12.70% and the “delta p50 0.5 mM” value was −39.20%.

In the case of `[2H]C([2H])([2H])C(n1nccc1-c1ncccc1COc1ccc2ncoc2c1C=O)C([2H])([2H])[2H]` [Example 33, 6-((2-(1-(propan-2-yl-1,1,1,3,3,3-d6)-1H-pyrazol-5-yl)pyridin-3-yl)methoxy)benzo[d]oxazole-7-carbaldehyde], the “delta p50 0.2 mM” value is reported as −12.70% and the “delta p50 0.5 mM” value is reported as −39.70%.

`[2H]C([2H])([2H])C(n1ncc(F)c1-c1ncncc1COc1cc(F)cc(O)c1C=O)C([2H])([2H])[2H]` [Example 34, 4-fluoro-2-((4-(4-fluoro-1-(propan-2-yl-1,1,1,3,3,3-d6)-1H-pyrazol-5-yl)pyrimidin-5-yl)methoxy)-6-hydroxybenzaldehyde] was tested, and the “delta p50 0.2 mM” value was −6.50% and the “delta p50 0.5 mM” value was −10.00%.

`[2H]C([2H])([2H])C(n1ncc(F)c1-c1ncncc1COc1cccc(O)c1C=O)C([2H])([2H])[2H]` [Example 35, 2-((4-(4-fluoro-1-(propan-2-yl-1,1,1,3,3,3-d6)-1H-pyrazol-5-yl)pyrimidin-5-yl)methoxy)-6-hydroxybenzaldehyde] was tested, and the “delta p50 0.2 mM” value was −10.30% and the “delta p50 0.5 mM” value was −29.80%.

With `[2H]C([2H])([2H])C(n1nccc1-c1ncncc1COc1cc(F)cc(O)c1C=O)C([2H])([2H])[2H]` [Example 36, 4-fluoro-2-hydroxy-6-((4-(1-(propan-2-yl-1,1,1,3,3,3-d6)-1H-pyrazol-5-yl)pyrimidin-5-yl)methoxy)benzaldehyde] the “delta p50 0.2 mM” value was −9.30% and the “delta p50 0.5 mM” value was −14%.

For `[2H]C([2H])([2H])C(n1nccc1-c1ncncc1COc1cccc(O)c1C=O)C([2H])([2H])[2H]` [Example 37, 2-hydroxy-6-((4-(1-(propan-2-yl-1,1,1,3,3,3-d6)-1H-pyrazol-5-yl)pyrimidin-5-yl)methoxy)benzaldehyde], the “delta p50 0.2 mM” value was −16.20% and the “delta p50 0.5 mM” value was −46.10%.

With `[2H]C([2H])(Oc1cc(F)cc(O)c1C=O)c1cncnc1-c1ccnn1C(C)C` [Example 39, 4-fluoro-2-hydroxy-6-((4-(1-isopropyl-1H-pyrazol-5-yl)pyrimidin-5-yl)methoxy-d2)benzaldehyde] the “delta p50 0.2 mM” value was −12.20% and the “delta p50 0.5 mM” value was −29.30%.

In the case of `[2H]C([2H])(Oc1ccc(F)c(O)c1C=O)c1cncnc1-c1ccnn1C(C)C` [Example 40, 3-fluoro-2-hydroxy-6-((4-(1-isopropyl-1H-pyrazol-5-yl)pyrimidin-5-yl)methoxy-d2)benzaldehyde], the “delta p50 0.2 mM” value is reported as −6% and the “delta p50 0.5 mM” value is reported as −12%.

With `[2H]C([2H])(Oc1cccc(O)c1C=O)c1cncnc1-c1c(F)cnn1C(C)C` [Example 41, 2-((4-(4-fluoro-1-isopropyl-1H-pyrazol-5-yl)pyrimidin-5-yl)methoxy-d2)-6-hydroxybenzaldehyde] the “delta p50 0.2 mM” value was −14.40% and the “delta p50 0.5 mM” value was −30.20%.

In the case of `[2H]C([2H])(Oc1cccc(O)c1C=O)c1cncnc1-n1ccnc1C(C)C` [Example 42, 2-hydroxy-6-((4-(2-isopropyl-1H-imidazol-1-yl)pyrimidin-5-yl)methoxy-d2)benzaldehyde], the “delta p50 0.2 mM” value is reported as −10.20% and the “delta p50 0.5 mM” value is reported as −23.10%.

With `[2H]C([2H])(Oc1ccc2ncoc2c1C=O)c1cncnc1-n1ccnc1C(C)C` [Example 43, 6-((4-(2-isopropyl-1H-imidazol-1-yl)pyrimidin-5-yl)methoxy-d2)benzo[d]oxazole-7-carbaldehyde] the “delta p50 0.2 mM” value was −9.90% and the “delta p50 0.5 mM” value was −28.10%.

In the case of `[2H]C([2H])(Oc1cc(F)cc(O)c1C=O)c1cncnc1-n1ccnc1C(C)C` [Example 44, 4-fluoro-2-hydroxy-6-((4-(2-isopropyl-1H-imidazol-1-yl)pyrimidin-5-yl)methoxy-d2)benzaldehyde], the “delta p50 0.2 mM” value is reported as −6.90% and the “delta p50 0.5 mM” value is reported as −22.10%.

`[2H]C([2H])(Oc1cccc(O)c1C=O)c1cccnc1-n1ccnc1C1CC1` [Example 45, 2-((2-(2-cyclopropyl-1H-imidazol-1-yl)pyridin-3-yl)methoxy-d2)-6-hydroxybenzaldehyde] was tested, and the “delta p50 0.2 mM” value was −10% and the “delta p50 0.5 mM” value was −29.80%.

`[2H]C([2H])(Oc1cccc(O)c1C=O)c1ncccc1-c1ccnn1C(C)C` [Example 46, 2-hydroxy-6-((3-(1-isopropyl-1H-pyrazol-5-yl)pyridin-2-yl)methoxy-d2)benzaldehyde] was tested, and the “delta p50 0.2 mM” value was −12.80% and the “delta p50 0.5 mM” value was −37.90%.

In the case of `[2H]C([2H])(Oc1cc(F)cc(O)c1C=O)c1ncccc1-c1ccnn1C(C)C` [Example 47, 4-fluoro-2-hydroxy-6-((3-(1-isopropyl-1H-pyrazol-5-yl)pyridin-2-yl)methoxy-d2)benzaldehyde], the “delta p50 0.2 mM” value is reported as −15.30% and the “delta p50 0.5 mM” value is reported as −40.80%.

In the case of `[2H]C(C)(C)n1nccc1-c1ncccc1COc1cccc(O)c1C=O` [Example 48, 2-hydroxy-6-((2-(1-(propan-2-yl-2-d)-1H-pyrazol-5-yl)pyridin-3-yl)methoxy)benzaldehyde], the “delta p50 0.2 mM” value is reported as −11% and the “delta p50 0.5 mM” value is reported as −38.10%.

With `[2H]C(C)(C)n1nccc1-c1ncncc1COc1cccc(O)c1C=O` [Example 50, 2-hydroxy-6-((4-(1-(propan-2-yl-2-d)-1H-pyrazol-5-yl)pyrimidin-5-yl)methoxy)benzaldehyde] the “delta p50 0.2 mM” value was −16.10% and the “delta p50 0.5 mM” value was −38.4.%.

In the case of `[2H]C(C)(C)n1nccc1-c1nccnc1COc1cccc(O)c1C=O` [Example 51, 2-hydroxy-6-((3-(1-(propan-2-yl-2-d)-1H-pyrazol-5-yl)pyrazin-2-yl)methoxy)benzaldehyde], the “delta p50 0.2 mM” value is reported as −13.10% and the “delta p50 0.5 mM” value is reported as −36.40%.

With `CC(C)n1nccc1-c1ncncc1COc1ccc2ncsc2c1C=O` [Example 53, 6-((4-(1-isopropyl-1H-pyrazol-5-yl)pyrimidin-5-yl)methoxy)benzo[d]thiazole-7-carbaldehyde] the “delta p50 0.2 mM” value was −20.50% and the “delta p50 0.5 mM” value was −37.80%.

In the case of `CC(C)n1nccc1-c1ncncc1COc1ccc2ncoc2c1C=O` [Example 54, 6-((4-(1-isopropyl-1H-pyrazol-5-yl)pyrimidin-5-yl)methoxy)benzo[d]oxazole-7-carbaldehyde], the “delta p50 0.2 mM” value is reported as −12.00% and the “delta p50 0.5 mM” value is reported as −35.00%.

— US10787430B2, “Hemoglobin modifier compounds and uses thereof” (FronThera U.S. Pharmaceuticals LLC, priority 2016, dated 2020)
